Like-named read-outs stand apart in the source and are kept apart here.
Tests used:
Type in all cases: cell-based
[1] = tested on: isogenic LN229 gliobastoma cells; assay: Anti-cancer assay against isogenic LN229 cell line set, maximum 200 μM (Example 46); conditions: concentration up to 200 μM
Method: Isogenic LN229 gliobastoma cells were maintained in Dulbecco's Modified Eagle Medium (DMEM) supplemented with 10% fetal bovine serum, 1% Penicillin/Streptomycin, and 0.1% Fungin. DAY 0: Cells were plated into sterile 96-well plates (Corning Costar 96-well) at a concentration of 500 cells/well using a Multichannel pipettor. Then, assay plates were incubated overnight in a 37° C. 5% CO2 incubator. DAY 1: Compounds were prepared as 50 mM stocks in dimethyl sulfoxide (DMSO) and stored protected from light at room temperature (RT) until use. Prior to compound addition, a two-fold serial dilution of compound stock solutions was performed in DMSO from 30 mM to 0.117 mM in a 96-well Master plate. Vehicle control wells contained DMSO. 97 μL of media was added to each well of a new 96-well plate (Daughter plate) and 3 μL of drug solution from Master plate was added to corresponding wells in the Daughter plate resulting in a 3× plate. Three replicate dilution curves of each compound were run on each assay plate. […]
Assay plates were incubated for 120 hours at 37° C. in a humidified 5% CO2 incubator. DAY 5: Following incubation, cells were fixed with 4% paraformaldehyde and stained with Hoechst dye for nuclei visualization. […] Images were acquired on a BioTek Cytation 5 Cell Imaging Multimode Reader and quantified using Cell Profiler image analysis software. […]

[2] = tested on: LN229 gliobastoma cells MGMT+/MMR−; assay: Anti-cancer assay, isogenic LN229 cells, nuclei count (Example 43); conditions: Homo sapiens, read-out: MGMT+ MMR− Activity
Source text: (§1) Cytotoxicity of the compounds may be measured in short-term cell viability assays against four isogenic LN229 glioblastoma cell lines engineered to be proficient or deficient in MGMT and/or MMR activity by using short hairpin RNAs (shRNAs) targeting MSH2. This approach allows for determination of the relationship between MGMT status, MMR status, and compound activity. LN229 cells are maintained in Dulbecco's Modified Eagle Medium (DMEM) supplemented with 10% fetal bovine serum, 1% Penicillin/Streptomycin, and 0.1% Fungin. DAY 0: Cells are plated into sterile 96-well plates (Corning Costar 96-well) at a concentration of 500 cells/well using a Multichannel pipettor. Then, assay plates are incubated overnight in a 37° C. 5% CO2 incubator. DAY 1: Compounds are prepared as 50 mM stocks in dimethyl sulfoxide (DMSO) and stored protected from light at room temperature (RT) until use. Prior to compound addition, a two-fold serial dilution of compound stock solutions is performed in DMSO from 30 mM to 0.117 mM in a 96-well Master plate. Vehicle control wells contain DMSO. 97 μL of media is added to each well of a new 96-well plate (Daughter plate) and 3 μL of drug solution from Master plate is added to corresponding wells in the Daughter plate resulting in a 3× plate. Three replicate dilution curves of each compound are run on each assay plate. The final concentration of compounds ranges from 300 μM to 1.171 μM (9-point, 2-fold dilution dose response curve), and the final DMSO concentration is 1%.
(§2) Assay plates are incubated for 120 hours at 37° C. in a humidified 5% CO2 incubator. DAY 5: Following incubation, cells are fixed with 4% paraformaldehyde and stained with Hoechst dye for nuclei visualization. Fixation, staining and washing is performed by using a Thermo Scientific Multidrop Combi. Images are acquired on a BioTek Cytation 5 Cell Imaging Multimode Reader and quantified using Cell Profiler image analysis software. Raw cell count data for test compounds are normalized to percent viability relative to the DMSO vehicle control.
(§3) Isogenic LN229 gliobastoma cells were maintained in Dulbecco's Modified Eagle Medium (DMEM) supplemented with 10% fetal bovine serum, 1% Penicillin/Streptomycin, and 0.1% Fungin. DAY 0: Cells were plated into sterile 96-well plates (Corning Costar 96-well) at a concentration of 500 cells/well using a Multichannel pipettor. Then, assay plates were incubated overnight in a 37° C. 5% CO2 incubator. DAY 1: Compounds were prepared as 50 mM stocks in dimethyl sulfoxide (DMSO) and stored protected from light at room temperature (RT) until use. Prior to compound addition, a two-fold serial dilution of compound stock solutions was performed in DMSO from 30 mM to 0.117 mM in a 96-well Master plate. Vehicle control wells contained DMSO. 97 μL of media was added to each well of a new 96-well plate (Daughter plate) and 3 μL of drug solution from Master plate was added to corresponding wells in the Daughter plate resulting in a 3× plate. Three replicate dilution curves of each compound were run on each assay plate. The final concentration of compounds ranged from 300 μM to 1.171 μM (9-point, 2-fold dilution dose response curve), and the final DMSO concentration was 1%.
as §2, with “plates were” for “plates are”, “cells were” for “cells are”, “washing was” for “washing is”, “Images were” for “Images are”, “compounds were” for “compounds are”

[3] = tested on: LN229 gliobastoma cells MGMT+/MMR+; assay: as above; conditions: Homo sapiens, read-out: MGMT+ MMR+ Activity
Source text: as §1, §2, §3
as §2, with “plates were” for “plates are”, “cells were” for “cells are”, “washing was” for “washing is”, “Images were” for “Images are”, “compounds were” for “compounds are”

[4] = tested on: LN229 gliobastoma cells MGMT−/MMR+; assay: Anti-cancer assay, isogenic LN229 cells, nuclei count (Examples 43, 46); conditions: Homo sapiens, read-out: MGMT− MMR+ Activity
Source text: as §1, §2, §3
as §2, with “plates were” for “plates are”, “cells were” for “cells are”, “washing was” for “washing is”, “Images were” for “Images are”, “compounds were” for “compounds are”, “control. […]” for “control.”

[5] = tested on: LN229 gliobastoma cells MGMT−/MMR−; assay: as above; conditions: Homo sapiens, read-out: MGMT− MMR− Activity
Source text: as §1, §2, §3
as §2, with “plates were” for “plates are”, “cells were” for “cells are”, “washing was” for “washing is”, “Images were” for “Images are”, “compounds were” for “compounds are”, “control. […]” for “control.”

[6] = LN-229, LN229 MGMT+/MMR−, 120 hours
[7] = LN-229, LN229 MGMT+/MMR+, 120 hours
[8] = LN-229, LN229 MGMT−/MMR+, 120 hours
[9] = LN-229, LN229 MGMT−/MMR−, 120 hours

| Compound | anti-cancer activity against LN229 isogenic cell line set [1] | IC50 [2, 6] | IC50 [3, 7] | IC50 [4, 8] | IC50 [5, 9] | IC50 ([2]; LN-229, 120 h) | IC50 ([3]; LN-229, 120 h) | IC50 ([4]; LN-229, 120 h) | IC50 ([5]; LN-229, 120 h) |
| --- | --- | --- | --- | --- | --- | --- | --- | --- | --- |
| COCCn1nnc2c(C(N)=O)ncn2c1=O [Compound A2] | no detectable anti-cancer activity |  |  |  |  |  |  |  |  |
| O=c1n(CCOC(F)(F)F)nnc2c(-c3ncc(-c4ccccc4)o3)ncn12 [II-2, 8-(5-Phenyloxazol-2-yl)-3-(2-(trifluoromethoxy)ethyl)imidazo[5,1-d][1,2,3,5]tetrazin-4(3H)-one] |  | 20 to 50 µM | < 20 µM | 50 to 100 µM | 20 to 50 µM |  |  |  |  |
| CN1CCN(C(=O)c2ncn3c(=O)n(CCOC(F)(F)F)nnc23)CC1 [Compound I-10, 8-(4-Methylpiperazine-1-carbonyl)-3-(2-(trifluoromethoxy)ethyl)imidazo[5,1-d][1,2,3,5]tetrazin-4(3H)-one] |  | 50 to 100 µM | 50 to 100 µM | 20 to 50 µM | 20 to 50 µM |  |  |  |  |
| O=C(Nc1ccccn1)c1ncn2c(=O)n(CCOC(F)(F)F)nnc12 [Compound I-8, 4-Oxo-N-(2-pyridyl)-3-[2-(trifluoromethoxy)ethyl]imidazo[5,1-d][1,2,3,5]tetrazine-8-carboxamide] |  | > 100 µM | > 100 µM | 50 to 100 µM | 20 to 50 µM |  |  |  |  |
| [2H]C([2H])(OC(F)(F)F)C([2H])([2H])n1nnc2c(C(N)=O)ncn2c1=O [Compound I-29, 4-Oxo-3-(2-(trifluoromethoxy)ethyl-1,1,2,2-d4)-3,4-dihydroimidazo[5,1-d][1,2,3,5]tetrazine-8-carboxamide] |  | > 100 µM | > 100 µM | 20 to 50 µM | < 20 µM |  |  |  |  |
| O=NN(CCOC(F)(F)F)C(=O)NCCOC(F)(F)F [IV-2, 1-Nitroso-1,3-bis(2-(trifluoromethoxy)ethyl)urea] |  |  |  |  |  | > 100 µM | > 100 µM | 50 to 100 µM | 20 to 50 µM |
